These results are taken from patent publication US9018258B2, “Substituted 1-benzylcycloalkylcarboxylic acids and the use thereof” (Bayer Intellectual Property GmbH, priority 2010, dated 2015).

Assay [1] concerns the target T1, soluble guanylate cyclase (sGC) (Rattus norvegicus, UniProt P20595).
T1 construct: made in house; host or cells: Sf9 insect cells (baculovirus)
Briefly: Stimulation of sGC enzyme activity (PPi detection, luciferase). The assay is classed as biochemical. The settings on record: sGC enzyme in vitro; for EC50: read-out: EC50 (concentration at 50% of maximum efficacy), activating action at the sGC enzyme. How it is done: Soluble guanylate cyclase (sGC) converts on stimulation GTP into cGMP and pyrophosphate (PPi). PPi is detected with the aid of the assay described below. The signal produced in the assay increases as the reaction progresses and serves as a measure of the sGC enzyme activity under the given stimulation.
To carry out the assay, 29 μl of enzyme solution [0-10 nM soluble guanylate cyclase (prepared according to Honicka et al., J. Mol. Med. 77, 14-23 (1999)) in 50 mM TEA, 2 mM MgCl2, 0.1% BSA (fraction V), 0.005% Brij®, pH 7.5] are initially introduced into a microplate, and 1 μl of the substance to be tested (as a serially diluted solution in DMSO) is added. The mixture is incubated at room temperature for 10 min. Then 20 μl of detection mix [1.2 nM Firefly Luciferase (Photinus pyralis luciferase, Promega), 29 μM dehydroluciferin (prepared according to Bitler & McElroy, Arch. Biochem. Biophys. 72, 358 (1957)), 122 μM luciferin (Promega), 153 μM ATP (Sigma) and 0.4 mM DTT (Sigma) in 50 mM TEA, 2 mM MgCl2, 0.1% BSA (fraction V), 0.005% Brij®, pH 7.5] are added. The enzyme reaction is started by adding 20 μl of substrate solution [1.25 mM guanosine 5′-triphosphate (Sigma) in 50 mM TEA, 2 mM MgCl2, 0.1% BSA (fraction V), 0.005% Brij®, pH 7.5] and measured continuously in a luminometer. The extent of the stimulation by the substance to be tested can be determined relative to the signal of the unstimulated reaction.
The activation of haem-free guanylate cyclase is examined by addition of 25 μM of 1H-1,2,4-oxadiazolo[4,3-a]quinoxalin-1-one (ODQ) to the enzyme solution and subsequent incubation for 30 minutes and compared to the stimulation of the native enzyme.

Assay [2] concerns the target T2, GAL4-PPARα (Homo sapiens, UniProt Q07869).
T2 construct: expressed in transfected cells
T2 sequence (Q07869 167-468): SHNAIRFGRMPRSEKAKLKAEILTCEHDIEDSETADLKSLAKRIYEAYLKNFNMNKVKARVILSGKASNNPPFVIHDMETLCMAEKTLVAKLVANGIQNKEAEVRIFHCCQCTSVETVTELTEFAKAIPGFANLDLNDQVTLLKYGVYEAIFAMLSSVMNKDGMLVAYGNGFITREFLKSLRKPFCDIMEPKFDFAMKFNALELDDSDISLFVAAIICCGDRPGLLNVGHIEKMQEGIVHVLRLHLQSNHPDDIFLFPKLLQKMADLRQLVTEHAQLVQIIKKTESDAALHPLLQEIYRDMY
Briefly: Cellular PPAR transactivation assay, GAL4-PPARα chimera in CHO-K1 cells. It is filed as cell-based. The settings on record: for Emax: CHO-K1, maximum effect relative to reference compound (Example 73 of EP 1 452 521-A1 = 100%), read-out: PPARα efficacy; for EC50: CHO-K1 cells, luciferase reporter, 6 h stimulation. A digest of the protocol:
(§1)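 CHO-K1 cells stably expressing GAL4 DNA-binding domain fused to the human PPAR ligand-binding domain (α aa 167-468, γ aa 203-506, δ aa 138-442) plus a GAL4-driven firefly luciferase reporter. Compounds added in serum-free medium for 6 h; EC50 from luminescence curves. Efficacy in % of a pan-PPAR agonist reference set as 100%.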

For assay [3], the target named is T3, GAL4-PPARγ (Homo sapiens, UniProt P37231).
T3 construct: PPARγ (amino acids 203-506); expressed in transfected cells
T3 sequence (P37231 203-505 limits assumed): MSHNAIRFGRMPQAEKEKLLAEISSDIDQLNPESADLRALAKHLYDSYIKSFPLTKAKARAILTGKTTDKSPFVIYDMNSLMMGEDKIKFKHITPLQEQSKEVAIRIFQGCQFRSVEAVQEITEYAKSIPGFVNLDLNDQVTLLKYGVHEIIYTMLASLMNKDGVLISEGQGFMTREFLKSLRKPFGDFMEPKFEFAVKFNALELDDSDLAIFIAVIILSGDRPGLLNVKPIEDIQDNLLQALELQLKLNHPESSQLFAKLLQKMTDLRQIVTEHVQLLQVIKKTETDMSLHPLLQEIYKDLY
Briefly: Cellular PPAR transactivation assay, GAL4-PPARγ chimera in CHO-K1 cells. It is filed as cell-based. The settings on record: for Emax: CHO-K1, maximum effect relative to reference compound (Example 73 of EP 1 452 521-A1 = 100%), read-out: PPARγ efficacy; for EC50: CHO-K1 cells, luciferase reporter, 6 h stimulation. A digest of the protocol:
as §1
On the technique in general: Reporter assays use an easily measured gene product as a stand-in for the process of interest.

The target in assay [4] is T4, sGC (Rattus norvegicus, UniProt P20595).
T4 construct: expressed in transfected cells; host or cells: CHO reporter cell
T4 sequence (P19686 whole entry partner): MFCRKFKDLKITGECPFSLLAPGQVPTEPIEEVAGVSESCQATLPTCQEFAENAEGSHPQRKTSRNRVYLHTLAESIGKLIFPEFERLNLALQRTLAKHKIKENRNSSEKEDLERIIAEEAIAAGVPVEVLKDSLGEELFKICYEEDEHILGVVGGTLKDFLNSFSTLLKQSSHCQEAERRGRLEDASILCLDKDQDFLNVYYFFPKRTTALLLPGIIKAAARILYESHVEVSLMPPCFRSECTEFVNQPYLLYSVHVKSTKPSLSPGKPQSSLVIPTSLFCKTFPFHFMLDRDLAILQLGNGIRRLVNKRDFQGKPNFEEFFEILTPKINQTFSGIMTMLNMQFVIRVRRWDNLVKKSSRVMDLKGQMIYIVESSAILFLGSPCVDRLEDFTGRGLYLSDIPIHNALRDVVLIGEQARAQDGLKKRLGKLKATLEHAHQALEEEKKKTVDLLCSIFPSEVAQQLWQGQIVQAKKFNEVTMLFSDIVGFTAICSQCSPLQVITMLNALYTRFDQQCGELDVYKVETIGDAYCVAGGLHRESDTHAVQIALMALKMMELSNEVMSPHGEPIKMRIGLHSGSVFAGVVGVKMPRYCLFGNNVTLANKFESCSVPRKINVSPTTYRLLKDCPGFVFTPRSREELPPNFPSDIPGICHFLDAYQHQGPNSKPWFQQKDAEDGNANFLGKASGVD
T4 sequence (P20595 whole entry): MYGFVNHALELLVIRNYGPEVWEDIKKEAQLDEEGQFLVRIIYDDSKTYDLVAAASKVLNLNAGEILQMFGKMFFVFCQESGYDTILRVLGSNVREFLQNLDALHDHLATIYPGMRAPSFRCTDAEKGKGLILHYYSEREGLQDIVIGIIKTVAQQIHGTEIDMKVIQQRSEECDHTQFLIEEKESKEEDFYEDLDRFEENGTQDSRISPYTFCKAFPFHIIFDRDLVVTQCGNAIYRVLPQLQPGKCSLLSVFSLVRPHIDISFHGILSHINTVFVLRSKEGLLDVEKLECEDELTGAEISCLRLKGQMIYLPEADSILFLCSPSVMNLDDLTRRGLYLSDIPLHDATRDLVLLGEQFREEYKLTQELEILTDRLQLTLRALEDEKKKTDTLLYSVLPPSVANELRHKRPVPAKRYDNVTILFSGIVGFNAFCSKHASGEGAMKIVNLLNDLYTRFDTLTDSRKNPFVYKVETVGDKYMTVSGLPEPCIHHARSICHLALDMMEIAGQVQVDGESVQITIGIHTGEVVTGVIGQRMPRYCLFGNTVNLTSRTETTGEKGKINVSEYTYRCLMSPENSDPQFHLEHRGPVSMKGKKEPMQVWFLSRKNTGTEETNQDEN
Briefly: Action at a recombinant guanylate cyclase reporter cell line (CHO reporter cell). It is filed as cell-based. The settings on record: CHO reporter cell in vitro. How it is done:
The cellular action of the compounds according to the invention is determined at a recombinant guanylate cyclase reporter cell line, as described in F. Wunder et al., Anal. Biochem. 339, 104-112 (2005).

Molecules are shown by their SMILES. Some results are limits rather than exact numbers.

T1 sequence (P19686 whole entry partner): as the sequence (P19686 whole entry partner) above
T1 sequence (P20595 whole entry): as the sequence (P20595 whole entry) above

For the compound `CCOC(c1ccc(Cl)c(NC(=O)[C@H](c2ccc(Cl)cc2)[C@@H](C)C(F)(F)F)c1)C1(C(=O)O)CC1` (single isomer, unassigned) [Example 101], in assay [1], the “MEC (minimum effective concentration), activating action at the sGC enzyme” value (from here on “MEC … at the sGC enzyme”) came to 0.7 nM. Also, the EC50 is 4.6 nM in assay [1], more than 10 µM in assay [2] and more than 10 µM in assay [3]. Further, the Emax in assay [2] and in assay [3] was 0% throughout. Moreover, the “MEC (minimum effective concentration), sGC-activating activity in the CHO reporter cell” value (from here on “MEC … in the CHO reporter cell”) in assay [4] is listed as 0.3 nM.

With `[2H]C([2H])([2H])OC(c1ccc(Cl)c(NC(=O)[C@H](c2ccc(Cl)cc2)[C@@H](C)C(F)(F)F)c1)C1(C(=O)O)CC1` (single isomer, unassigned; (+)) [Example 99], the “MEC … at the sGC enzyme” value in assay [1] was 4.1 nM. For the same compound, the results for the EC50 in assay [1], in assay [2] and in assay [3] were 53 nM, more than 10 µM and more than 10 µM, respectively. In addition, the Emax in assay [2] and in assay [3] was 0% in each case. The “MEC … in the CHO reporter cell” value in assay [4] stood at 1 nM.

`C[C@H]([C@H](C(=O)Nc1cc(CC2(C(=O)O)CC2)ccc1Cl)c1ccc(Cl)c(F)c1)C(F)(F)F` [Example 30, (+)-1-(4-chloro-3-{[(2S,3R)-2-(4-chloro-3-fluoro-phenyl)-4,4,4-trifluoro-3-methylbutanoyl]amino}-benzyl)cyclopropanecarboxylic acid]: in assay [1], the “MEC … at the sGC enzyme” value came out at 0.6 nM and the EC50 was determined as 7.6 nM. In addition, in assay [2], the Emax turned out to be 0% and the EC50 was more than 10 µM. Moreover, in assay [3], the Emax was 20% and the EC50 was 2.3 µM. Further, the “MEC … in the CHO reporter cell” value in assay [4] is 0.3 nM.

In the case of `C[C@H]([C@H](C(=O)Nc1cc(CC2(C(=O)O)CC2)ccc1Cl)c1ccc(Cl)cc1)C(F)(F)F` [Example 50, (+)-1-(4-Chloro-3-{[(2S,3R)-2-(4-chlorophenyl)-4,4,4-trifluoro-3-methylbutanoyl]amino}benzyl)-cyclopropanecarboxylic acid], in assay [1], the “MEC … at the sGC enzyme” value amounted to 0.7 nM and the EC50 was found to be 7.3 nM. For the same compound, in assay [2], the Emax was determined as 0% and the EC50 was more than 10 µM. Also, in assay [3], the Emax is 45% and the EC50 came out at 3 µM. In assay [4], the “MEC … in the CHO reporter cell” value is given as 0.4 nM.
